The supplement of paper PMC10307832

Legend:
Assay in all cases: relative viability (nuclei count vs DMSO), 5 days (fraction); higher = more cells survive
[1] = compound: O=C(NCCCNc1nc(Nc2cccc(NC(=O)N3CCCC3)c2)ncc1I)c1cccs1 [BX 795] + CS(=O)(=O)N1CCN(Cc2cc3nc(-c4cccc5[nH]ncc45)nc(N4CCOCC4)c3s2)CC1 [Pictilisib] (partner 1 µM)
How it was run: (§1)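 Medians of duplicate plates are given as relative viability. That measure is the nuclei count in treated wells divided by the count in vehicle wells. Counts were taken on 4× images of lung cancer cell lines in 1536-well plates, 5 days after pin-tool dosing the day after seeding with one drug alone or a fixed anchor-drug dose plus five library-drug doses (not always all listed) in √10 steps.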

[2] = compound: O=C(NCCCNc1nc(Nc2cccc(NC(=O)N3CCCC3)c2)ncc1I)c1cccs1 [BX 795] + Nc1ncn([C@H]2C[C@H](O)[C@@H](CO)O2)c(=O)n1 [Decitabine] (partner 2 µM)
How it was run: as §1

[3] = compound: O=C(NCCCNc1nc(Nc2cccc(NC(=O)N3CCCC3)c2)ncc1I)c1cccs1 [BX 795] + NC(=O)Nc1cc(-c2cccc(F)c2)sc1C(=O)N[C@H]1CCCNC1 [AZD7762] (partner 0.2 µM)
How it was run: as §1

[4] = compound: O=C(NCCCNc1nc(Nc2cccc(NC(=O)N3CCCC3)c2)ncc1I)c1cccs1 [BX 795] + CC(=O)Nc1cccc(-n2c(=O)n(C3CC3)c(=O)c3c(Nc4ccc(I)cc4F)n(C)c(=O)c(C)c32)c1 [Trametinib] (partner 0.02 µM)
How it was run: as §1

[5] = compound: O=C(NCCCNc1nc(Nc2cccc(NC(=O)N3CCCC3)c2)ncc1I)c1cccs1 [BX 795] + Nc1nc2[nH]cc(CCc3ccc(C(=O)N[C@@H](CCC(=O)O)C(=O)O)cc3)c2c(=O)[nH]1 [Pemetrexed] (partner 0.2 µM)
How it was run: as §1

Cell Line	relative viability ([1]; first compound 0.04 µM)	relative viability ([1]; first compound 0.1265 µM)	relative viability ([1]; first compound 0.4 µM)	relative viability ([1]; first compound 1.265 µM)	relative viability ([2]; first compound 0.04 µM)	relative viability ([2]; first compound 0.1265 µM)	relative viability ([2]; first compound 0.4 µM)	relative viability ([2]; first compound 1.265 µM)	relative viability ([3]; first compound 0.04 µM)	relative viability ([3]; first compound 0.1265 µM)	relative viability ([3]; first compound 0.4 µM)	relative viability ([3]; first compound 1.265 µM)	relative viability ([4]; first compound 0.04 µM)	relative viability ([4]; first compound 0.1265 µM)	relative viability ([4]; first compound 0.4 µM)	relative viability ([4]; first compound 1.265 µM)	relative viability ([5]; first compound 0.04 µM)	relative viability ([5]; first compound 0.1265 µM)	relative viability ([5]; first compound 0.4 µM)	relative viability ([5]; first compound 1.265 µM)
201T	0.689	0.679	0.721	0.68	0.886	0.871	1	0.867	0.6	0.603	0.597	0.628	0.763	0.749	0.76	0.766	0.302	0.305	0.298	0.304
NCI-H1734	0.463	0.471	0.411	0.368	0.582	0.613	0.545	0.504	0.54	0.562	0.51	0.444	0.714	0.651	0.69	0.562	0.348	0.421	0.33	0.398
NCI-H1651	0.569	0.617	0.615	0.645	0.801	0.624	0.6	0.645	0.469	0.457	0.463	0.511	0.847	0.87	0.879	0.824	0.602	0.571	0.409	0.596
LCLC-97TM1	0.186	0.163	0.206	0.137	0.268	0.264	0.367	0.227	0.334	0.352	0.239	0.346	0.203	0.19	0.179	0.166	0.152	0.184	0.177	0.184
H3255	0.533	0.475	0.498	0.428	0.647	0.819	0.664	0.616	0.933	0.869	0.846	0.859	0.616	0.666	0.655	0.565	0.615	0.531	0.584	0.509
NCI-H322M	0.627	0.521	0.537	0.527	0.87	0.887	0.801	0.741	0.62	0.532	0.555	0.753	0.5	0.487	0.6	0.562	0.591	0.606	0.603	0.672
